Test results from patent US5407936A, “Benzimidazole derivative, process for preparing the same, antiemetic agent containing the same as active ingredient and intermediate compound for preparing the same” (priority 1991, dated 1995).

How the values were obtained:
5-HT3 receptor = target: T1, 5-HT3 receptor (Rattus norvegicus, UniProt P35563); assay: 5-HT3 antagonistic activity: antagonism of Bezold-Jarisch reflex (reflective bradycardia) induced by 5-HT; assay type: in vivo, S.D. male rats; conditions: for Duration time of 5-HT3 antagonistic activity: i.v., time until inhibitory rate of reflective bradycardia became 20% or less; for ED50: rat, iv, read-out: ED50 [95% Confidence limits], antagonistic activity against Bezold-Jarisch reflex
T1 construct: S.D. male rats (weighing 200 to 350 g) were anesthetized; from tissue; host or cells: whole anesthetized S.D. male rats (in vivo; endogenous receptor)
T1 sequence (P35563 24-483): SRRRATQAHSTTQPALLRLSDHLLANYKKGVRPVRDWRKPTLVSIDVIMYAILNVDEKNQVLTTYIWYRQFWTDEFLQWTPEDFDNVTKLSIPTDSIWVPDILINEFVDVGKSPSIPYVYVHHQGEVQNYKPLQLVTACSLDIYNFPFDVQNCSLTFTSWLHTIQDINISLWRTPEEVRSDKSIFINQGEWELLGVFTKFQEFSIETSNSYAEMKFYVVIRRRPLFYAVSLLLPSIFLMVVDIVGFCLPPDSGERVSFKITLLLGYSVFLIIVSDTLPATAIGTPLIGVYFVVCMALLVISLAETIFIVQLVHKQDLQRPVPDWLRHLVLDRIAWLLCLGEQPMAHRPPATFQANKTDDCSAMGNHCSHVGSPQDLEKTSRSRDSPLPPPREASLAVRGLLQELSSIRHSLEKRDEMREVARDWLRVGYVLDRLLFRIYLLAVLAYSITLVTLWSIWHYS
Description: 5-HT3 antagonistic activity:
The 5-HT3 antagonistic activity was measured in accordance with the method by Collins et al. [Br. J. Pharmacol., 80, 570P (1983)] using as an index the inhibitory activity against reflective bradycardia [Bezold-Jarisch reflex] induced by 5-HT.
That is, S.D. male rats (weighing 200 to 350 g) were anesthetized by intraperitoneal administration of urethane ([…]) and introduced with cannula into the carotid and the pulse frequency was measured. 5-HT was dissolved in physiological saline and intravenously administered (0.04 mg/kg). The test compounds were dissolved in physiological saline or physiological saline containing 5% ethanol and intravenously administered five minutes before the administration of 5-HT.
ED50 values were obtained from a dose-response curve of inhibitory rate of reflective bradycardia by the test compounds and the 5-HT3 antagonistic activity was compared.
In addition, the test compounds (about 25 times amount of the above ED50 value) and 5-HT were intravenously administered in the same manner as mentioned above and thereafter 5-HT (0.04 mg/kg) was intravenously administered with the passage of time.

[1] = test system: cisplatin-induced vomiting; assay: Preventive and therapeutic effects against vomiting induced by cisplatin; assay type: in vivo, male ferrets; conditions: i.v.; for Inhibitory rate, preventive effect: 5 minutes before cisplatin (10 mg/kg), vomiting counted for 4 hours; for Inhibitory rate, therapeutic effect: after appearance of vomiting (about 80 minutes after cisplatin 10 mg/kg), counted for 4 hours
Description: Preventive and therapeutic effects against vomiting induced by cisplatin:
The experiment was conducted in accordance with the method by Costall et al. [Neuropharmacology, 26, 1321-1326 (1987)].
That is, male ferrets (weighing 1.0 to 1.6 kg, three animals in each group) underwent an implant operation of cannula at the jugular vein for intravenous administration. For evaluating the preventive effects, the test compounds dissolved in a physiological saline or in a physiological saline containing 5% ethanol or a physiological saline (control) were intravenously administered to the ferrets three days after the operation, then after 5 minutes, cisplatin (10 mg/kg) dissolved in a physiological saline was intravenously administered to the ferrets over 30 seconds, and a number of vomiting caused between just after the administration of cisplatin and 4 hours after the administration was measured. As to the therapeutic effects, cisplatin (10 mg/kg) dissolved in a physiological saline was intravenously administered to the ferrets three days after the operation over 30 seconds. After appearance of vomiting (about 80 minutes after the administration of cisplatin), the test compounds dissolved in a physiological saline or in a physiological saline containing 5% ethanol or a physiological saline (control) were intravenously administered to the ferrets and then a number of vomiting occurred during 4 hours thereafter was counted. The inhibitory rate was calculated by the following formula: Inhibitory rate (%)={1-(mean number of vomiting in the group administered with the test compound/mean number of vomiting in the control group)}×100

ddY Male mice = assay: Acute toxicity; assay type: in vivo; conditions: 100 mg/kg intravenously; observed for 7 days; five mice per group
From the text: The same as in Experiment 2

[2] = test system: vomiting caused by the administration of the chemotherapeutics such as cisplatin; conditions: Cancer. Chemother. Pharmacol., 23, 389-391 (1989); cited from earlier work

SMILES	Duration time of 5-HT3 antagonistic activity (5-HT3 receptor; dose 1.0 μg/kg) [h]	Inhibitory rate, preventive effect ([1]; 0.01 mg/kg) [%]	Inhibitory rate, therapeutic effect ([1]; 0.01 mg/kg) [%]	Duration time of 5-HT3 antagonistic activity (5-HT3 receptor; dose 100 μg/kg) [h]	ED50 (5-HT3 receptor) [µg/kg]	Inhibitory rate, preventive effect ([1]; 0.1 mg/kg) [%]	Inhibitory rate, therapeutic effect ([1]; 0.1 mg/kg) [%]	Death of animals (ddY Male mice)	Inhibition of vomiting caused by chemotherapeutics such as cisplatin [2]	5-HT3 antagonistic activity compared to the compound of the present invention (5-HT3 receptor; in words, reason why duration was not measured)
CC(C)n1c(N2CCN(C)CC2)nc2cc(Cl)c(N)cc21.O=C(O)/C=C\C(=O)O.O=C(O)/C=C\C(=O)O [Compound 2, 6-Amino-5-chloro-1-isopropyl-2-(4-methyl-1-piperazinyl)benzimidazole dimaleate]	> 8	85	100	–	–	–	–	–	–	–
CC(C)n1c(N2CCN(C)CC2)nc2cc(Cl)c(N)cc21 [Compound 1, 6-Amino-5-chloro-1-isopropyl-2-(4-methyl-1-piperazinyl)benzimidazole]	> 8	100	100	–	–	–	–	–	–	–
Cc1nccn1CC1CCc2c(c3ccccc3n2C)C1=O (centres unmarked) [Reference compound, Ondansetron]	–	–	–	2	4	31	77	all animals were dead	effective	–
CN1CCN(c2nc3ccccc3n2C)CC1 [Compound A, 1-Methyl-2-(4-methyl-1-piperazinyl)benzimidazole]	–	–	–	–	> 3	–	–	–	–	quite low as compared to the compound of the present invention
